Measurements as given in the NIST ThermoML archive (doi:10.1016/j.jct.2003.09.013).
Values joined by “and” are separate entries in the source; they are usually repeats but may differ in a detail not shown here. Equal values may be shown once.

Experiment: mn = molality of the nth substance listed, in mol/kg
Conditions: 350 kPa, Liquid; for molar volume: Vibrating tube method; for apparent molar heat capacity: Extra sensitive DSC

O=[N+]([O-])[O-].O=[N+]([O-])[O-].[Pb+2] [lead(II) nitrate] + O
Conditions | apparent molar heat capacity [J/K/mol] | apparent molar volume | molar volume
278.15 K, m1 = 0.01959 | – | 3.11e-05 m3/mol | 3.11e-05 m3/mol
278.15 K, m1 = 0.01983 | – | 3.8e-05 m3/mol | 3.8e-05 m3/mol
278.15 K, m1 = 0.02999 | – | 3.7e-05 m3/mol and 3.36e-05 m3/mol | 3.7e-05 m3/mol and 3.36e-05 m3/mol
278.15 K, m1 = 0.04862 | – | 3.8e-05 m3/mol | 3.8e-05 m3/mol
278.15 K, m1 = 0.05035 | – | 3.73e-05 m3/mol | 3.73e-05 m3/mol
278.15 K, m1 = 0.1004 | – | 3.52e-05 m3/mol and 4.01e-05 m3/mol | 4.01e-05 m3/mol and 3.52e-05 m3/mol
278.15 K, m1 = 0.2435 | – | 3.781e-05 m3/mol | 3.781e-05 m3/mol
278.15 K, m1 = 0.392 | – | 3.95e-05 m3/mol | 3.95e-05 m3/mol
278.15 K, m1 = 0.4885 | – | 4.08e-05 m3/mol | 4.08e-05 m3/mol
283.15 K, m1 = 0.01959 | – | 3.4e-05 m3/mol | 3.4e-05 m3/mol
283.15 K, m1 = 0.01983 | – | 3.8e-05 m3/mol | 3.8e-05 m3/mol
283.15 K, m1 = 0.02999 | – | 3.9e-05 m3/mol and 3.62e-05 m3/mol | 3.9e-05 m3/mol and 3.62e-05 m3/mol
283.15 K, m1 = 0.04862 | – | 3.9e-05 m3/mol | 3.9e-05 m3/mol
283.15 K, m1 = 0.05035 | – | 3.93e-05 m3/mol | 3.93e-05 m3/mol
283.15 K, m1 = 0.1004 | – | 4.14e-05 m3/mol and 3.73e-05 m3/mol | 4.14e-05 m3/mol and 3.73e-05 m3/mol
283.15 K, m1 = 0.2435 | – | 3.976e-05 m3/mol | 3.976e-05 m3/mol
283.15 K, m1 = 0.392 | – | 4.126e-05 m3/mol | 4.126e-05 m3/mol
283.15 K, m1 = 0.4885 | 4.5 | 4.243e-05 m3/mol | 4.243e-05 m3/mol
288.15 K, m1 = 0.01959 | – | 3.508e-05 m3/mol | 3.508e-05 m3/mol
288.15 K, m1 = 0.01983 | – | 3.8e-05 m3/mol | 3.8e-05 m3/mol
288.15 K, m1 = 0.02999 | – | 3.9e-05 m3/mol and 3.71e-05 m3/mol | 3.9e-05 m3/mol and 3.71e-05 m3/mol
288.15 K, m1 = 0.04862 | – | 3.96e-05 m3/mol | 3.96e-05 m3/mol
288.15 K, m1 = 0.05035 | – | 4.05e-05 m3/mol | 4.05e-05 m3/mol
288.15 K, m1 = 0.1004 | – | 4.12e-05 m3/mol and 3.851e-05 m3/mol | 4.12e-05 m3/mol and 3.851e-05 m3/mol
288.15 K, m1 = 0.2435 | – | 4.073e-05 m3/mol | 4.073e-05 m3/mol
288.15 K, m1 = 0.392 | – | 4.246e-05 m3/mol | 4.246e-05 m3/mol
288.15 K, m1 = 0.4885 | 12.8 | 4.323e-05 m3/mol | 4.323e-05 m3/mol
293.15 K, m1 = 0.4885 | 18.6 | – | –
298.15 K, m1 = 0.01959 | – | 3.86e-05 m3/mol | 3.86e-05 m3/mol
298.15 K, m1 = 0.01983 | – | 4.1e-05 m3/mol | 4.1e-05 m3/mol
298.15 K, m1 = 0.02999 | – | 4.19e-05 m3/mol and 3.835e-05 m3/mol | 4.19e-05 m3/mol and 3.835e-05 m3/mol
298.15 K, m1 = 0.04862 | – | 4.22e-05 m3/mol | 4.22e-05 m3/mol
298.15 K, m1 = 0.05035 | – | 4.377e-05 m3/mol | 4.377e-05 m3/mol
298.15 K, m1 = 0.1004 | – | 4.33e-05 m3/mol and 4.134e-05 m3/mol | 4.33e-05 m3/mol and 4.134e-05 m3/mol
298.15 K, m1 = 0.2435 | – | 4.368e-05 m3/mol | 4.368e-05 m3/mol
298.15 K, m1 = 0.392 | 2.9 | 4.54e-05 m3/mol | 4.54e-05 m3/mol
298.15 K, m1 = 0.4885 | 22.3 | 4.567e-05 m3/mol | 4.567e-05 m3/mol
303.15 K, m1 = 0.392 | 6 | – | –
303.15 K, m1 = 0.4885 | 24.9 | – | –
308.15 K, m1 = 0.01959 | – | 4.027e-05 m3/mol | 4.027e-05 m3/mol
308.15 K, m1 = 0.01983 | – | 4.04e-05 m3/mol | 4.04e-05 m3/mol
308.15 K, m1 = 0.02999 | – | 4.2e-05 m3/mol and 3.7e-05 m3/mol | 4.2e-05 m3/mol and 3.7e-05 m3/mol
308.15 K, m1 = 0.04862 | – | 4.27e-05 m3/mol | 4.27e-05 m3/mol
308.15 K, m1 = 0.05035 | – | 4.631e-05 m3/mol | 4.631e-05 m3/mol
308.15 K, m1 = 0.1004 | – | 4.39e-05 m3/mol and 4.262e-05 m3/mol | 4.39e-05 m3/mol and 4.262e-05 m3/mol
308.15 K, m1 = 0.2435 | – | 4.56e-05 m3/mol | 4.56e-05 m3/mol
308.15 K, m1 = 0.392 | 8.2 | 4.698e-05 m3/mol | 4.698e-05 m3/mol
308.15 K, m1 = 0.4885 | 26.6 | 4.739e-05 m3/mol | 4.739e-05 m3/mol
313.15 K, m1 = 0.392 | 9.6 | – | –
313.15 K, m1 = 0.4885 | 27.7 | – | –
318.15 K, m1 = 0.01959 | – | 4.413e-05 m3/mol | 4.413e-05 m3/mol
318.15 K, m1 = 0.01983 | – | 4.13e-05 m3/mol | 4.13e-05 m3/mol
318.15 K, m1 = 0.02999 | – | 4.23e-05 m3/mol and 3.71e-05 m3/mol | 4.23e-05 m3/mol and 3.71e-05 m3/mol
318.15 K, m1 = 0.04862 | – | 4.32e-05 m3/mol | 4.32e-05 m3/mol
318.15 K, m1 = 0.05035 | – | 4.763e-05 m3/mol | 4.763e-05 m3/mol
318.15 K, m1 = 0.1004 | – | 4.49e-05 m3/mol and 4.36e-05 m3/mol | 4.49e-05 m3/mol and 4.36e-05 m3/mol
318.15 K, m1 = 0.2435 | – | 4.709e-05 m3/mol | 4.709e-05 m3/mol
318.15 K, m1 = 0.392 | 10.3 | 4.824e-05 m3/mol | 4.824e-05 m3/mol
318.15 K, m1 = 0.4885 | 27.8 | 4.881e-05 m3/mol | 4.881e-05 m3/mol
323.15 K, m1 = 0.392 | 10.5 | – | –
323.15 K, m1 = 0.4885 | 27.8 | – | –
328.15 K, m1 = 0.01959 | – | 4.522e-05 m3/mol | 4.522e-05 m3/mol
328.15 K, m1 = 0.01983 | – | 4.163e-05 m3/mol | 4.163e-05 m3/mol
328.15 K, m1 = 0.02999 | – | 4.215e-05 m3/mol and 3.58e-05 m3/mol | 4.215e-05 m3/mol and 3.58e-05 m3/mol
328.15 K, m1 = 0.04862 | – | 4.365e-05 m3/mol | 4.365e-05 m3/mol
328.15 K, m1 = 0.05035 | – | 4.871e-05 m3/mol | 4.871e-05 m3/mol
328.15 K, m1 = 0.1004 | – | 4.523e-05 m3/mol and 4.39e-05 m3/mol | 4.523e-05 m3/mol and 4.39e-05 m3/mol
328.15 K, m1 = 0.2435 | – | 4.806e-05 m3/mol | 4.806e-05 m3/mol
328.15 K, m1 = 0.392 | 10.3 | 4.911e-05 m3/mol | 4.911e-05 m3/mol
328.15 K, m1 = 0.4885 | 27.3 | 4.978e-05 m3/mol | 4.978e-05 m3/mol
333.15 K, m1 = 0.392 | 10 | – | –
333.15 K, m1 = 0.4885 | 26.8 | – | –
338.15 K, m1 = 0.01959 | – | 4.5e-05 m3/mol | 4.5e-05 m3/mol
338.15 K, m1 = 0.01983 | – | 4.114e-05 m3/mol | 4.114e-05 m3/mol
338.15 K, m1 = 0.02999 | – | 4.265e-05 m3/mol and 3.58e-05 m3/mol | 4.265e-05 m3/mol and 3.58e-05 m3/mol
338.15 K, m1 = 0.04862 | – | 4.42e-05 m3/mol | 4.42e-05 m3/mol
338.15 K, m1 = 0.05035 | – | 4.942e-05 m3/mol | 4.942e-05 m3/mol
338.15 K, m1 = 0.1004 | – | 4.599e-05 m3/mol and 4.45e-05 m3/mol | 4.599e-05 m3/mol and 4.45e-05 m3/mol
338.15 K, m1 = 0.2435 | – | 4.89e-05 m3/mol | 4.89e-05 m3/mol
338.15 K, m1 = 0.392 | 9.1 | 4.981e-05 m3/mol | 4.981e-05 m3/mol
338.15 K, m1 = 0.4885 | 25.9 | 5.059e-05 m3/mol | 5.059e-05 m3/mol
343.15 K, m1 = 0.392 | 8 | – | –
343.15 K, m1 = 0.4885 | 24.7 | – | –
348.15 K, m1 = 0.01959 | – | 4.33e-05 m3/mol | 4.33e-05 m3/mol
348.15 K, m1 = 0.02999 | – | 3.57e-05 m3/mol | 3.57e-05 m3/mol
348.15 K, m1 = 0.05035 | – | 4.93e-05 m3/mol | 4.93e-05 m3/mol
348.15 K, m1 = 0.1004 | – | 4.662e-05 m3/mol and 4.47e-05 m3/mol | 4.662e-05 m3/mol and 4.47e-05 m3/mol
348.15 K, m1 = 0.2435 | – | 4.92e-05 m3/mol | 4.92e-05 m3/mol
348.15 K, m1 = 0.392 | 6.7 | 5.034e-05 m3/mol | 5.034e-05 m3/mol
348.15 K, m1 = 0.4885 | 23.3 | 5.112e-05 m3/mol | 5.112e-05 m3/mol
353.15 K, m1 = 0.392 | 5.2 | – | –
353.15 K, m1 = 0.4885 | 22 | – | –
358.15 K, m1 = 0.01959 | – | 4.397e-05 m3/mol | 4.397e-05 m3/mol
358.15 K, m1 = 0.02999 | – | 3.55e-05 m3/mol | 3.55e-05 m3/mol
358.15 K, m1 = 0.05035 | – | 4.866e-05 m3/mol | 4.866e-05 m3/mol
358.15 K, m1 = 0.1004 | – | 4.48e-05 m3/mol and 4.513e-05 m3/mol | 4.48e-05 m3/mol and 4.513e-05 m3/mol
358.15 K, m1 = 0.2435 | – | 4.929e-05 m3/mol | 4.929e-05 m3/mol
358.15 K, m1 = 0.392 | 3.8 | 5.016e-05 m3/mol | 5.016e-05 m3/mol
358.15 K, m1 = 0.4885 | 20.5 | 5.11e-05 m3/mol | 5.11e-05 m3/mol
363.15 K, m1 = 0.392 | 2.1 | – | –
363.15 K, m1 = 0.4885 | 18.8 | – | –
368.15 K, m1 = 0.01959 | – | 4.451e-05 m3/mol | 4.451e-05 m3/mol
368.15 K, m1 = 0.02999 | – | 3.49e-05 m3/mol | 3.49e-05 m3/mol
368.15 K, m1 = 0.05035 | – | 4.751e-05 m3/mol | 4.751e-05 m3/mol
368.15 K, m1 = 0.1004 | – | 4.02e-05 m3/mol and 4.44e-05 m3/mol | 4.02e-05 m3/mol and 4.44e-05 m3/mol
368.15 K, m1 = 0.2435 | – | 4.902e-05 m3/mol | 4.902e-05 m3/mol
368.15 K, m1 = 0.392 | – | 4.883e-05 m3/mol | 4.883e-05 m3/mol
368.15 K, m1 = 0.4885 | 16.9 | 5.055e-05 m3/mol | 5.055e-05 m3/mol
373.15 K, m1 = 0.4885 | 14.8 | – | –
378.15 K, m1 = 0.4885 | 12.1 | – | –
383.15 K, m1 = 0.4885 | 9.5 | – | –
388.15 K, m1 = 0.4885 | 6.8 | – | –
393.15 K, m1 = 0.4885 | 3.2 | – | –
